{
  "source": "paper PMC10382351",
  "about": "“In vivo evaluation of a novel ^18F-labeled PET radioligand for translocator protein 18 kDa (TSPO) in monkey brain” (European Journal of Nuclear Medicine and Molecular Imaging, 2023)",
  "key": {"[1]": {"test": "Plasma free fraction (fP) by ultrafiltration", "format": "in vitro ADME, rhesus monkey", "settings": "for Plasma free fraction fP / fraction unbound: n = 3; for fraction unbound: male, rhesus monkey, plasma", "experimental": "Arterial blood sampling was performed in all scans to determine plasma parent concentration of the radioligand. Seventeen blood samples were drawn from an implanted port in the femoral artery of the monkeys during the 180-min PET scans at 15-s intervals for the first two minutes, followed by samples at 3, 5, 10, 30, 60, 90, 120, 150, and 180 min (volumes varied from 1.0 to 5.0 mL). Radioactivity in plasma was quantified and corrected for radiometabolites using high-performance liquid chromatography (HPLC). The separation was performed on an X-Terra C18 column (10 µm, 7.8 × 300 mm) with an isocratic mobile phase composed of methanol: water: triethylamine (77.5:22.5:0.1 by vol.) at a flow rate of 5 mL/min. The plasma free fraction (fP) was measured by ultrafiltration, as previously described. A standard fP was measured in a frozen aliquot of pooled plasma in parallel with the experimental blood sample, and as internal standard it was then used to normalize the measured fP of the blood samples."}, "TSPO": {"target": "T1, TSPO (Mus musculus, UniProt P50637)", "T1 construct": "from tissue; host or cells: living mice, whole-brain ROI, also lung (in vivo PET)", "test": "PET study in mice at baseline and after PK11195", "format": "in vivo", "experimental": "Imaging experiments were performed on a microPET Focus 120 camera (Siemens Medical Solution; Knoxville, TN). Mice were anesthetized with 1.5% isoflurane in oxygen at a flow rate of 1 L/min. [^18F]SF51 (150 µL; 2.9 ± 0.6 MBq) was injected intravenously through the tail vein of each mouse. Baseline scans were obtained in 12 mice, and another eight mice were imaged after pre-administration of 5 mg/kg PK11195. Scans were acquired for 120 min. Data were histogrammed into 24 time frames (6 × 20, 5 × 60, 4 × 120, 3 × 300, 3 × 600 and 3 × 1200 s) and reconstructed using Fourier rebinning plus a two-dimensional filtered back projection. No scatter or attenuation corrections were applied. PET images were analyzed using PMOD with a single ROI of the whole brain."}, "[2]": {"settings": "mouse, after blockade with PK11195"}},
  "data": [
    {"smiles": "CC[C@@H](C)N(C)C(=O)c1nc(-c2cccc([18F])c2)c2ccccc2n1", "note": "[[^18F]SF51]", "values": [
      {"measurement": "Plasma free fraction fP", "setting": "[1]; baseline scans", "result": "6 ± 1", "unit": "%"},
      {"measurement": "Plasma free fraction fP", "setting": "[1]; blocked scans (PK11195)", "result": "19 ± 4", "unit": "%"},
      {"measurement": "fraction unbound", "setting": "[1]; baseline scans", "result": "0.064 ± 0.007"},
      {"measurement": "fraction unbound", "setting": "[1]; blocked scans (PK11195)", "result": "0.188 ± 0.036"},
      {"measurement": "fPblock", "setting": "[1]; one monkey, after PBR28 pre-blockade (5 mg/kg)", "result": 19.3, "unit": "%"},
      {"measurement": "fPbase", "setting": "[1]; one monkey, baseline scan of the PBR28 experiment", "result": 5.7, "unit": "%"},
      {"measurement": "fP of the internal standard (frozen aliquot of pooled plasma)", "setting": "[1]; six PET scans", "result": "2.4 to 3.8", "unit": "%"},
      {"measurement": "Blockade of radioligand in mouse brain", "setting": "TSPO; after i.v. 5 mg/kg PK11195", "result": "about 80%"},
      {"measurement": "Radioactivity in bone", "setting": "TSPO; mouse", "result": "No significant increase in radioactivity"},
      {"measurement": "Uptake in lung (blockable)", "setting": "TSPO; mouse", "result": "> 2", "unit": "SUV"},
      {"measurement": "Peak brain uptake", "setting": "TSPO; [2]", "result": "~ 2.5 SUV"},
      {"measurement": "Time of peak brain uptake", "setting": "TSPO; [2]", "result": "three"},
      {"measurement": "Peak brain uptake", "setting": "TSPO; mouse, baseline", "result": "~ 0.8 SUV"},
      {"measurement": "Time of peak brain uptake", "setting": "TSPO; mouse, baseline", "result": "around 15 min"},
      {"measurement": "Brain activity after blockade relative to baseline", "setting": "TSPO; mouse, last 80 min of scanning, PK11195", "result": "25 % of that at baseline"}
    ]}
  ]
}
